# Several values for one entry are separate records, joined by “and”; a condition that tells them apart may be missing. Equal values may be shown once.
# Assays:
# [1] = test system: kidney tissues of treated or untreated rats; experiment: Real-time qRT-PCR of signature amplicons, validation stage, labeled and un-labeled samples (Table 23); details: for AI045075_DB71_seg6 normalized qRT-PCR expression (Interferon stimulated exonuclease 20 (ISG20) transcript) / H31883_DB71_seg13 normalized qRT-PCR expression (Cyclin-G1 (CCNG1) transcript) / MUSCYCG1R_DB81_seg19-20 normalized qRT-PCR expression / W41270_DB81_seg11 normalized qRT-PCR expression (tumor necrosis factor receptor superfamily, member 12a transcript) / W64472_DB81_seg2 normalized qRT-PCR expression (Interferon stimulated exonuclease 20 (ISG20) transcript) / W83813_DB81_seg27 normalized qRT-PCR expression: labeled samples, listed as ValpA
# In short: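 Rat kidney RNA, labeled and un-labeled samples, run over seven plates; two amplicons per signature gene (wild-type and splice variant). Values normalized to housekeeping genes, then per plate and amplicon by geometric mean of ratios against a shuffled normalization plate (outliers removed), then scaled.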
# [2] = test system: Sprague-Dawley Crl:CD(SD) rats; details: rat, in vivo;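 further: control rats received saline intraperitoneally, and the organs examined were adrenals, brain, kidneys, liver, spleen and thymus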
# Protocol: Control animals were treated intraperitoneal with saline.
# Randomization and group allocation: prior to treatment, the animals were assigned to the experimental groups based on their body weight. Mean body weight of each group at randomization was not deviate±20% of the mean population weight. Males and females were randomized separately. For the randomization, a computer program was used.
# The day before autopsy, urinalysis was performed and blood samples were taken for hematology and clinical chemistry examinations.
# On the day of autopsy the animals were anaesthetized with isoflurane, blood was collected for PBMC isolation then subjected to autopsy. Tissues and organs (adrenals, brain, kidneys, liver, spleen and thymus) were weighed and subjected to gross pathological and histopathological examinations.
# [3] = day1, kidney of individual male/female rats
# [4] = day5, kidney of individual male/female rats
# [5] = day28, kidney of individual male/female rats
smiles,measurement,setting,value
CCCC(CCC)C(=O)O [Valproic acid],AI045075_DB71_seg6 normalized qRT-PCR expression (Interferon stimulated exonuclease 20 (ISG20) transcript),[1]; [3],1.006 and 1.436 and 2.189 and 0.983 and 1.098 and 1.522
same,H31883_DB71_seg13 normalized qRT-PCR expression (Cyclin-G1 (CCNG1) transcript),[1]; [3],1.488 and 1.506 and 0.999 and 0.721 and 1.041
same,MUSCYCG1R_DB81_seg19-20 normalized qRT-PCR expression,[1]; [3],2.289 and 1.581 and 1.842 and 1.929 and 0.637 and 0.9
same,"W41270_DB81_seg11 normalized qRT-PCR expression (tumor necrosis factor receptor superfamily, member 12a transcript)",[1]; [3],1.134 and 0.939 and 1.405 and 1.225 and 0.547 and 1.544
same,W64472_DB81_seg2 normalized qRT-PCR expression (Interferon stimulated exonuclease 20 (ISG20) transcript),[1]; [3],1.082 and 1.123 and 1.887 and 0.995 and 1.092 and 1.596
same,W83813_DB81_seg27 normalized qRT-PCR expression,[1]; [3],1.179 and 0.912 and 1.495 and 1.13 and 0.818 and 1.366
same,AI045075_DB71_seg6 normalized qRT-PCR expression (Interferon stimulated exonuclease 20 (ISG20) transcript),[1]; [4],1.017 and 1.145 and 0.997 and 0.883 and 1.052 and 0.877
same,H31883_DB71_seg13 normalized qRT-PCR expression (Cyclin-G1 (CCNG1) transcript),[1]; [4],0.846 and 0.85 and 0.975 and 0.791 and 0.694 and 1.082
same,MUSCYCG1R_DB81_seg19-20 normalized qRT-PCR expression,[1]; [4],1.019 and 1.509 and 1.372 and 0.94 and 1.425 and 1.585
same,"W41270_DB81_seg11 normalized qRT-PCR expression (tumor necrosis factor receptor superfamily, member 12a transcript)",[1]; [4],0.631 and 1.428 and 1.002 and 0.617 and 0.997
same,W64472_DB81_seg2 normalized qRT-PCR expression (Interferon stimulated exonuclease 20 (ISG20) transcript),[1]; [4],0.92 and 1.226 and 1.169 and 0.702 and 0.812 and 0.894
same,W83813_DB81_seg27 normalized qRT-PCR expression,[1]; [4],0.778 and 1.17 and 0.876 and 0.926 and 1.146 and 0.992
same,AI045075_DB71_seg6 normalized qRT-PCR expression (Interferon stimulated exonuclease 20 (ISG20) transcript),[1]; [5],0.696 and 0.906 and 0.669 and 0.822 and 0.77 and 0.719
same,H31883_DB71_seg13 normalized qRT-PCR expression (Cyclin-G1 (CCNG1) transcript),[1]; [5],0.732 and 0.774 and 0.713 and 0.872 and 0.57 and 0.979
same,MUSCYCG1R_DB81_seg19-20 normalized qRT-PCR expression,[1]; [5],0.588 and 1.731 and 0.589 and 1.171 and 1.037 and 0.52
same,"W41270_DB81_seg11 normalized qRT-PCR expression (tumor necrosis factor receptor superfamily, member 12a transcript)",[1]; [5],0.543 and 0.95 and 0.459 and 1.044 and 0.587 and 1.011
same,W64472_DB81_seg2 normalized qRT-PCR expression (Interferon stimulated exonuclease 20 (ISG20) transcript),[1]; [5],1.085 and 0.788 and 0.965 and 1.51 and 0.478 and 0.991
same,W83813_DB81_seg27 normalized qRT-PCR expression,[1]; [5],0.493 and 1.254 and 0.46 and 0.875 and 0.761 and 1.208
same,"Label: true label (Normal/Toxic), known renal toxic effect","[1]; rat, in vivo",Normal
same,Clinical pathology,[2],Slightly lower total protein and Albumin values were found in males
same,Histopathology / renal damage,[2],No renal damage was found
same,Water consumption,[2],Increase in Valproic acid treated females
same,"Water consumption, males",[2],Sight decrease during the last week

# Source: patent publication US20160177395A1, “BIOMARKERS FOR THE PREDICTION OF RENAL INJURY” (priority 2007, published 2016)
